Measured values from paper PMC7956560, “New 3-Aryl-2-(2-thienyl)acrylonitriles with High Activity Against Hepatoma Cells” (International Journal of Molecular Sciences, 2021).

Columns and labels:
[1] = tested on: human HepG2 hepatoblastoma cells; assay: Growth inhibition, crystal violet staining, HepG2; format: cell-based; conditions: 48 h incubation, mean ± SD, read-out: Anti-proliferative activity IC50, HepG2
Method: (§1) The well-differentiated p53 wild-type human hepatoblastoma cell line HepG2 (ATCC# 8065) and the highly differentiated p53 mutated human hepatocellular carcinoma cell line Huh-7 (JCRB#0403) were grown in RPMI 1640 medium supplemented with 10% fetal bovine serum and 100 U/mL penicillin and […] streptomycin. Murine AML-12 hepatocytes were obtained from ATCC (CRL-2254) and grown in DMEM/F-12 Glutamax medium supplemented with 10% fetal bovine serum, 10 µg/mL insulin, 5.5 µg/mL transferrin, 5 ng/mL selenium (Gibco ITS-G 100X) and 40 ng/mL dexamethasone (Sigma-Aldrich). All cell lines were incubated in a 37 °C, 5% CO2, 95% humidified atmosphere.
(§2) Treatment-induced changes in cell number were evaluated by crystal violet staining, as previously described. Briefly, 1.500 cells per well were seeded in 96-well plates for 24 h at 37 °C, 5% CO2. For the experiments with HepG2 and Huh-7 cell lines, cells were incubated with rising concentrations (0–20 µM) of the new compounds (1a–1o) for 48 h. AML12-cells were treated with compounds 1a, 1b, 1c, 1e, 1i and 1j for 48 h and at concentrations ranging from 0.5–64 µM. Thereafter, the cells were fixed with 1% glutaraldehyde and stained with 0.1% crystal violet (Sigma-Aldrich). The unbound dye was removed by rinsing with water. Bound crystal violet was solubilized with 0.2% Triton X-100 (Sigma-Aldrich). Light extinction of crystal violet, which increases linearly with cell number, was analyzed at 570 nm using an ELISA-Reader (Dynex Technologies, Denkendorf, Germany). All experiments were carried out in duplicate or triplicate.

human Huh-7 HCC cells = assay: Growth inhibition, crystal violet staining, Huh-7; format: cell-based; conditions: 48 h incubation, mean ± SD, read-out: Anti-proliferative activity IC50, Huh-7
Method: as §1, §2

[2] = tested on: non-malignant murine AML-12 hepatocytes; assay: Growth inhibition, crystal violet staining, AML-12; format: cell-based
Method: as §1, §2

HepG2 cells = assay: Colony-formation assay; format: cell-based, human
Method: HepG2 cells were seeded in 6-well plates at a density of 300 cells/well and allowed to attach overnight. […] Then, the plates were washed twice with PBS, fixed with 4% formaldehyde for 1 h, and stained with 0.5% crystal violet for 3 min. Excessive crystal violet was washed out and the colonies were counted under the microscope. A colony was defined as a cell aggregate with 50 or more cells. Representative images were taken with a kappa digital camera system (Kappa Optronics GmbH, Germany). A total of n = 3 experiments were performed, and significance was tested by one-way ANOVA assays.

[3] = tested on: HepG2-tumors grown on membranes of fertilized chicken eggs; assay: Chorioallantoic membrane (CAM) assay; format: in vivo
Method: The chorioallantoic membrane (CAM) assay was performed as described previously. Fertilized chicken eggs (Gallus gallus) were obtained from commercial sources (Valo GmbH, Germany) and incubated in a humid environment at 38 °C. On day 3 of the egg development, a window was cut in the eggshell to access the developing vascular network of the CAM. At day 10 of chicken embryo development, a sterile silicon ring (10 mm diameter) was placed on the CAM and tumor plugs of 3 × 10^6 HepG2 cells in 20 µL Matrigel (BD Biosciences) with reduced growth factors were placed inside the silicon ring. After 24 h at 38 °C in an incubator, the tumor plaques attached and connected to the (tumor-)feeding CAM microvasculature. Then, the tumor plaques were topically treated with either PBS (negative control) or PBS containing rising concentrations of 1b (0–10 µM), 1c (0–2.5 µM) or sorafenib (10 μM) for 3 days. Tumor growth and viability of the embryo were controlled daily by stereo microscopy. After 72 h of treatment, the tumors were recovered for weighing and pictures were taken using a stereomicroscope equipped with a Kappa digital camera system (Kappa Optronics GmbH, Germany). For data analysis, the tumor weight of 1c-treated and untreated control tumors was determined and the mean weight of treated vs. untreated tumors of 11 eggs for each condition was calculated. Statistical significance evaluated by one-way ANOVA tests.

[4] = tested on: caspase-3 activity of HepG2 cells; assay: Apoptosis-specific caspase-3 activity; format: cell-based, human; conditions: HepG2, 1 and 10 µM, 24 h
Method: Changes in caspase-3 activity were measured by the cleavage of the fluorogenic substrate AC-DEVD-AMC (EMD Millipore, Billerica, MA, USA), as described previously. After 24 h of incubation with 1a, 1b, 1c, 1e and sorafenib (1 and 10 µM) the cells were harvested and lysed with lysis buffer. Subsequently, the lysates were incubated for 1 h at 37 °C with a substrate solution containing 20 μg/mL AC-DEVD-AMC, 20 mM HEPES, 10% glycerol and 2 mM DTT at pH 7.5. Substrate cleavage was measured fluorometrically using a Varioskan Flash Fluorometer (Thermo Fisher Scientific, Waltham, MA, USA; filter sets: ex 360/40 nm, em 460/10 nm). n = 3 independent measurements were performed in triplicate, and data are given as the mean percentage increase ± SD above control, which was set 100%.

CLK1 = target: T1, CLK1 (Homo sapiens, UniProt P49759); assay: Enzymatic kinase assay (Eurofins KinaseProfiler); format: biochemical; conditions: 10 µM compound, cell-free
T1 construct: purchased Eurofins KinaseProfiler service (Eurofins, France)
T1 sequence (P49759 whole entry): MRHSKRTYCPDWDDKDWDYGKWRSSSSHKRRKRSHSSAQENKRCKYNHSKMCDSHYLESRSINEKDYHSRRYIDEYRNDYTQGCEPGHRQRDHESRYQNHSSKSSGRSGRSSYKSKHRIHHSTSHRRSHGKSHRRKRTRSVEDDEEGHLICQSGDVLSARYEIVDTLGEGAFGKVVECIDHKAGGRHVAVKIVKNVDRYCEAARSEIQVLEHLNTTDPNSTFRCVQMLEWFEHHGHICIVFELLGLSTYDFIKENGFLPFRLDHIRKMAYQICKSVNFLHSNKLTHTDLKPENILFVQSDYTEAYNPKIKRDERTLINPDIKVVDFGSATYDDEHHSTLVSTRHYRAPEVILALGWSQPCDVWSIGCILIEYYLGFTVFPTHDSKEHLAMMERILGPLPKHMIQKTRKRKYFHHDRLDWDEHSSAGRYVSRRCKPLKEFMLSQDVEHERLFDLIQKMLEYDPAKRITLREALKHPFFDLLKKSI
Method: (§3) The kinase inhibiting potency of compound 1a, 1b and 1c (10 µM) was screened in a cell-free kinase assay, which consisted of a custom panel of 43 human protein kinases for 1c (listed in Figure 5A), as well as a subpanel of six kinases for 1a and 1b (Figure 5B). The initial panel was chosen to screen the lead compound 1c based on the union of two strategies. A total of 29 kinases were selected based on the correlated results of three in silico target prediction methods including structure- as well as ligand-based techniques and 20 kinases because of their relevance for HCC (note that six kinases were part of both strategies).
(§4) The assay was performed by Eurofins KinaseProfilerTM service (Eurofins, France) and the determination of enzymatic activity was assessed as previously described. Additionally, an IC50 determination of compound 1c against the VEGFR-2 was performed with a concentration range of 0.003 to 30 µM.

IGF-1R = target: T2, IGF-1R (Homo sapiens, UniProt P08069); assay: Enzymatic kinase assay (Eurofins KinaseProfiler); format: biochemical; conditions: 10 µM compound, cell-free
T2 construct: purchased Eurofins KinaseProfiler service (Eurofins, France)
T2 sequence (P08069 31-1367): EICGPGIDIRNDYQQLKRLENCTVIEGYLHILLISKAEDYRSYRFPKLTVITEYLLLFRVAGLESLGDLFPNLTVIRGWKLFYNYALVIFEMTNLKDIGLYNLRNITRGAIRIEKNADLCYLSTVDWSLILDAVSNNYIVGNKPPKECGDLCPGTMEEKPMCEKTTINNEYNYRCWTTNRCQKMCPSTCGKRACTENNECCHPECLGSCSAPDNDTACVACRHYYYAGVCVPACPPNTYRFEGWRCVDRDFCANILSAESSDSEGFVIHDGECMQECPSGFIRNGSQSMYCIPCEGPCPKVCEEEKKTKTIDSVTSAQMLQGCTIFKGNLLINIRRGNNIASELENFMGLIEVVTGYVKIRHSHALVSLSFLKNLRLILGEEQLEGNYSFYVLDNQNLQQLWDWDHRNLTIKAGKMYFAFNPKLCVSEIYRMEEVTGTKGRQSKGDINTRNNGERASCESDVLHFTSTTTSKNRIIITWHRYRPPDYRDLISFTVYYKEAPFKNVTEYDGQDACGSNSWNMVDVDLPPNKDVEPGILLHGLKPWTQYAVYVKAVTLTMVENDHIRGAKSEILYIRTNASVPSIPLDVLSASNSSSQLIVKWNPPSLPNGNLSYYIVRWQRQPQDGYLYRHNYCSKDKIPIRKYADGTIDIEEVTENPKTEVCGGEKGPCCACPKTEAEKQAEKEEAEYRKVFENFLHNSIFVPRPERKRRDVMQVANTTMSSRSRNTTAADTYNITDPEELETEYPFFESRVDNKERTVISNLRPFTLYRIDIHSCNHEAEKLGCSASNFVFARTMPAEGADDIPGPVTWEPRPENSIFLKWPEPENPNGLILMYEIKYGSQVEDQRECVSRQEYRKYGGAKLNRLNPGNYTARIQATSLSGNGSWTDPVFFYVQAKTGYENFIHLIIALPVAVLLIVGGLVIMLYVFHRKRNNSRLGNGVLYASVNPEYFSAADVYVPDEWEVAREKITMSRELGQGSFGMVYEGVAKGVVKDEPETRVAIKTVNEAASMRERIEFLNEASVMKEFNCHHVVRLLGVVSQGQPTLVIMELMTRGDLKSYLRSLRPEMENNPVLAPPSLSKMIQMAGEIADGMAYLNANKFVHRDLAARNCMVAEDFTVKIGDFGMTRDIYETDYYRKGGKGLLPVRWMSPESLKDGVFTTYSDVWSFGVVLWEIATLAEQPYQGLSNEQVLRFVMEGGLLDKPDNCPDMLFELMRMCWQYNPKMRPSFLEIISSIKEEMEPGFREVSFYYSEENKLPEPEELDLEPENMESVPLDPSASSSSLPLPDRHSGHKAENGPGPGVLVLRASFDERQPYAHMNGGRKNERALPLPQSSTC
Method: as §3, §4

VEGFR-1 = target: T3, VEGFR-1 (Homo sapiens, UniProt P17948); assay: Enzymatic kinase assay (Eurofins KinaseProfiler); format: biochemical; conditions: 10 µM compound, cell-free
T3 construct: purchased Eurofins KinaseProfiler service (Eurofins, France)
T3 sequence (P17948 27-1338): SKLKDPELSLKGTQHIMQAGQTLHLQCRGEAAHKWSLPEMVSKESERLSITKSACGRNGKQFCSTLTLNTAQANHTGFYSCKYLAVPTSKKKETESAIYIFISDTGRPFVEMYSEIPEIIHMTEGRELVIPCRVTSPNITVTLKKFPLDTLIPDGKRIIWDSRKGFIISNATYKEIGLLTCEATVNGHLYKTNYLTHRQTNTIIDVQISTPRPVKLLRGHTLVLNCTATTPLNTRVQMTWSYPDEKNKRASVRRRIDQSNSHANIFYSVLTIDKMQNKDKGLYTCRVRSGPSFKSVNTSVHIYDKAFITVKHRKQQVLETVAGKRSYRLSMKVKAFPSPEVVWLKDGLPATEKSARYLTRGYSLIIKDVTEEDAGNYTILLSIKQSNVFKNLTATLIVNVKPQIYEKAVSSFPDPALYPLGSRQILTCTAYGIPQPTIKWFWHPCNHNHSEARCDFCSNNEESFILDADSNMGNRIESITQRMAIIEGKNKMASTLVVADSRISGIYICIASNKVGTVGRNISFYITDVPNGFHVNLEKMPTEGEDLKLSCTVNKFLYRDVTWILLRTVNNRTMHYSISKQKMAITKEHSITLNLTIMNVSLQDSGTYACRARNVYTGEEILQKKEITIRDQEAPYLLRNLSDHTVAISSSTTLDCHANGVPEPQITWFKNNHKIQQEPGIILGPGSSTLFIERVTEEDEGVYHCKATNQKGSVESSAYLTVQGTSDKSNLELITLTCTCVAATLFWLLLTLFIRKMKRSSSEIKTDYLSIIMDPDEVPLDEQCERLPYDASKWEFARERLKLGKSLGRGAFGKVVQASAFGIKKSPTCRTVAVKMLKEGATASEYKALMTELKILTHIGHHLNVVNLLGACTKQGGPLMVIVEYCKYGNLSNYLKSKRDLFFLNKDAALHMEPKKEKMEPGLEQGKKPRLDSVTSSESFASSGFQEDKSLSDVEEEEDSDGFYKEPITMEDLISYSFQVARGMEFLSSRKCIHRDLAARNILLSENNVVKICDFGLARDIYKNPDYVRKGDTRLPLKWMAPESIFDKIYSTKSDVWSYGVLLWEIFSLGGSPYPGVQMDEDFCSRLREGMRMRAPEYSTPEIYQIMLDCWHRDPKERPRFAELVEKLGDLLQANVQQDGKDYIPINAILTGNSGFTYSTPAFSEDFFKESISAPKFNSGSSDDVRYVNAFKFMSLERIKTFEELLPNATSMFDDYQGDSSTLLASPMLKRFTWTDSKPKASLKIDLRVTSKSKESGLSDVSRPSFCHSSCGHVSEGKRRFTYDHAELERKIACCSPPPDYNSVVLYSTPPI
Method: as §3, §4

VEGFR-2 (KDR) = target: T4, VEGFR-2 (KDR) (Homo sapiens, UniProt P35968); assay: Enzymatic kinase assay (Eurofins KinaseProfiler); format: biochemical
T4 construct: purchased Eurofins KinaseProfiler service (Eurofins, France)
T4 sequence (P35968 20-1356): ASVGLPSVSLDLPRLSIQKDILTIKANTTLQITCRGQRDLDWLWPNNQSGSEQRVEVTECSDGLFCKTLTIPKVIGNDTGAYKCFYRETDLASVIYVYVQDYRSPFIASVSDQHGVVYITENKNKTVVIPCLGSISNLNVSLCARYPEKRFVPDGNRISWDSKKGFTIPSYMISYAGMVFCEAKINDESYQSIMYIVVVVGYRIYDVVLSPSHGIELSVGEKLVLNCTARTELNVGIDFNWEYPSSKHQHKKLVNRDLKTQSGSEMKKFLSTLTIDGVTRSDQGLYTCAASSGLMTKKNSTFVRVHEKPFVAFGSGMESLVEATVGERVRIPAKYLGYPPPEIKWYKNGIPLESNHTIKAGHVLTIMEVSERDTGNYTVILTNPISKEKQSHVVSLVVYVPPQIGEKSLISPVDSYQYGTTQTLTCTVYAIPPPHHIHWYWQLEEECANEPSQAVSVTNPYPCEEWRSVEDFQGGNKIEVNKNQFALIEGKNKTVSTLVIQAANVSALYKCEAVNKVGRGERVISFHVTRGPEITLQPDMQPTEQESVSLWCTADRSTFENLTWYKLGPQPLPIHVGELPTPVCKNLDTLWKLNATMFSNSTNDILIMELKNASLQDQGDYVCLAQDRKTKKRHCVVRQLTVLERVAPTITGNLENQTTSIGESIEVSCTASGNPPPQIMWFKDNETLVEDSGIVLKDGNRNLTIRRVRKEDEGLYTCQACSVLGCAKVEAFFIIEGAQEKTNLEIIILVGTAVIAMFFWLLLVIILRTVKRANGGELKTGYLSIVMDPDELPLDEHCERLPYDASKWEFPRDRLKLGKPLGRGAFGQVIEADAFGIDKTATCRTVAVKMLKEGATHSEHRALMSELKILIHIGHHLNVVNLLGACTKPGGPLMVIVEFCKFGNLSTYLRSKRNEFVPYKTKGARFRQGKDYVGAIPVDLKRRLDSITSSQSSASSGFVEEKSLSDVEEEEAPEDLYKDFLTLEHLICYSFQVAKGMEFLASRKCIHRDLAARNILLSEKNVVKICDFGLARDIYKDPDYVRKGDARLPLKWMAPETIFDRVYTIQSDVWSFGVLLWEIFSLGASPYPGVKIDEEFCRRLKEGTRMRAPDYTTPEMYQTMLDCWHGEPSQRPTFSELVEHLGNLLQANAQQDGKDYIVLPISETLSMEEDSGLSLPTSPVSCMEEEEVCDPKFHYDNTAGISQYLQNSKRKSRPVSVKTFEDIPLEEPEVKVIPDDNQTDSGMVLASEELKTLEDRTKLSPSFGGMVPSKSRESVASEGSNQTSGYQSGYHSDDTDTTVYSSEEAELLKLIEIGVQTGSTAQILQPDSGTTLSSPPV
Method: as §3, §4

[5] = tested on: panel of 43 human protein kinases; assay: Enzymatic kinase panel screening; format: biochemical; conditions: 10 µM compound
Method: as §3, §4

COc1ccc(C=C(C#N)c2cccs2)cc1O [Compound 1c, 2-[1-Cyano-2-(3-hydroxy-4-methoxyphenyl)-(E)-ethenyl)]-thiophene]
IC50 [1]: 550 ± 260 nM | IC50 (human Huh-7 HCC cells): 320 ± 150 nM | IC50 against AML-12 hepatocytes relative to hepatoma cells ([2]; AML-12 vs hepatoma cells (HepG2, Huh-7), 48 h): up to 10 fold | IC50 ([2]; Mus musculus, AML12, 48 h incubation, mean ± SD, read-out: Anti-proliferative activity IC50, AML-12): 1810 ± 310 nM | effect on HepG2 colony formation (in words) (HepG2 cells; 1, 5, 10 µM, 14 days): significantly inhibited HepG2 colony formation | inhibition of colony formation (HepG2 cells; HepG2, after two weeks): ~100% | tumor weight after treatment (in words) ([3]; extracted tumors after 3 days of treatment, 1c 0–2.5 µM): significant mass reduction | tumor reduction vs PBS-treated controls (in words) ([3]; topical treatment 72 h, 1b 0–10 µM, 1c 0–2.5 µM, sorafenib 10 µM): pronounced tumor reductions | tolerability, mortality and development of chicken embryos ([3]; treated vs untreated eggs): well tolerated | caspase-3 activity (in words) [4]: dose-dependently induced caspase-3 activity | inhibition at 10 µM (CLK1): 69% | inhibition of IGF-1R (in words) (IGF-1R): no relevant inhibition | inhibition at 10 µM (VEGFR-1): 75% | inhibition at 10 µM (VEGFR-2 (KDR); 10 µM compound, cell-free): 89% | IC50 (VEGFR-2 (KDR); concentration range 0.003 to 30 µM, read-out: IC50 against VEGFR-2): 3.32 µM | number of the 43 kinase targets inhibited by more than 50% [5]: six
